From patent publication US20140031283A1, “ANTICANCER FUSION PROTEIN” (ADAMED SP. Z O.O., priority 2011, published 2014)

How the values were obtained:
[1] = test system: human colon cancer HCT116; experiment: HCT116 colon cancer xenograft in Crl:SHO-Prkdc^scidHr^hr mice; format: in vivo; details: 65 mg/kg i.v., 10 daily applications with a two-day break, 24th day
Protocol: (§1) Antitumor activity of protein preparations was tested in a mouse model of human colon cancer HCT116, human colon cancer Colo205, human colon cancer model SW620, human liver cancer model HepG2, and human lung cancer models NCI-H460 and NCI-H460-Luc2.
The HCT116 (in mice Crl:SHO-Prkdc^scidHr^hr) were alternatively maintained in McCoy's medium (Hyclone, Logan, Utah, USA) supplemented with 10% fetal calf serum and 2 mM glutamine. On the day of mice grafting, the cells were detached from the support by washing the cells with trypsin (Invitrogen), then the cells were centrifuged at 1300 rpm, 4° C., 8 min., suspended in HBSS buffer (Hanks medium), counted and diluted to the concentration of 25×10^6 cells/ml. SW620 cells were maintained in DMEM (HyClone, Logan, Utah, USA) supplemented with 10% fetal calf serum and 2 mM glutamine. On the day of mice grafting, the cells were detached from the support by washing the cells with trypsin (Invitrogen), then the cells were centrifuged at 1300 rpm, 4° C., 8 min., suspended in HBSS buffer (Hanks medium), counted and diluted to the concentration of 25×10^6 cells/ml.
Examination of antitumor activity of proteins of the invention was conducted on 7-9 week-old CD-nude (Crl:CD1-Foxn1^nu 1) or 4-6 week-old Crl:SHO-Prkdc^scidHr^hr mice obtained from Charles River Germany. […]

NCI-H460 = details: continuous incubation over 72 h, test MTT
Protocol: (§2) Data analysis consists in determining IC50 concentration of the protein (in ng/ml), at which the 50% reduction in the number of cells occurs in the population treated compared to control cells. Results were analyzed using GraphPad Prism 5.0 software. […] Cell culture medium was diluted to a defined density (10^4-10^5 cells per 100 μl). Then 100 μl of appropriately diluted cell suspension was applied to a 96-well plate in triplicates. Thus prepared cells were incubated for 24 h at 37° C. in 5% or 10% CO2, depending on the medium used, and then to the cells (in 100 μl of medium) further 100 μl of the medium containing various concentrations of tested proteins were added. […] After incubation of the cells with tested proteins over the period of next 72 hours, which is equivalent to 3-4 times of cell division, the medium with the test protein was added with 20 ml of MTT working solution [5 mg/ml], and incubation was continued for 3 h at 37° C. in 5% CO2. Then the medium with MTT solution was removed, and formazan crystals were dissolved by adding 100 μl of DMSO. After stirring, the absorbance was measured at 570 nm (reference filter 690 nm).
(§3) Each experiment represents the average value of at least two independent experiments performed in triplicates.

[2] = test system: human liver cancer model HepG2; experiment: HepG2 liver cancer xenograft in Crl:SHO-Prkdc^scidHr^hr mice; format: in vivo; details: 30 mg/kg i.v. six times every second day, 33rd day
Protocol: as §1
The HepG2cells were maintained in MEM (HyClone, Logan, Utah, USA) supplemented with 10% fetal calf serum and 2 mM glutamine. On the day of mice grafting, the cells were detached from the support by washing the cells with trypsin (Invitrogen), then the cells were centrifuged at 1300 rpm, 4°C., 8 min., suspended in HBSS buffer (Hanks medium), counted and diluted to the concentration of 25×10^6 cells/ml.
Examination of antitumor activity of proteins of the invention was conducted on 7-9 week-old CD-nude (Crl:CD1-Foxn1^nu 1) or 4-6 week-old Crl:SHO-Prkdc^scidHr^hr mice obtained from Charles River Germany. Mice were kept under specific pathogen-free conditions with free access to food and demineralised water (ad libitum). All experiments on animals were carried in accordance with the guidelines: “Interdisciplinary Principles and Guidelines for the Use of Animals in Research. Marketing and Education” issued by the New York Academy of Sciences' Ad Hoc Committee on Animal Research and were approved by the IV Local Ethics Committee on Animal Experimentation in Warsaw (No. 71/2009). […]

HCT-116 = details: continuous incubation over 72 h, test MTT
Protocol: as §2, §3

[3] = test system: human lung cancer NCI-H460-Luc2; experiment: NCI-H460-Luc2 lung cancer xenograft in Crl:CD1-Foxn1nu 1 mice; format: in vivo; details: NCI-H460-Luc2, Crl:CD1-Foxn1nu 1 mice, 10 mg/kg i.v. six times every second day, 30th day
Protocol: as §1
The HCT116 (in mice Crl:CD1-Foxn1^nu 1), Colo205, NCI-H460, NCI-H460-Luc2 cells were maintained in RPMI 1640 medium (Hyclone, Logan, Utah, USA) mixed in the ratio of 1:1 with Opti-MEM (Invitrogen, Cat.22600-134) supplemented with 10% fetal calf serum and 2 mM glutamine. On the day of mice grafting, the cells were detached from the support by washing the cells with trypsin (Invitrogen), then the cells were centrifuged at 1300 rpm, 4° C., 8 min., suspended in HBSS buffer (Hanks medium), counted and diluted to the concentration of 25×10^6 cells/ml.
Examination of antitumor activity of proteins of the invention was conducted on 7-9 week-old CD-nude (Crl:CD1-Foxn1^nu 1) or 4-6 week-old Crl:SHO-Prkdc^scidHr^hr mice obtained from Charles River Germany. Mice were kept under specific pathogen-free conditions with free access to food and demineralised water (ad libitum). All experiments on animals were carried in accordance with the guidelines: “Interdisciplinary Principles and Guidelines for the Use of Animals in Research. […]

NCI-H460 IC50 (NCI-H460): 0.06968 µg/mL
HCT116 IC50 (HCT-116): 0.02557 µg/mL
Substance: rhTRAIL114-281: recombinant human soluble TRAIL, amino acids 114-281 of hTRAIL, used as the comparative reference
tumor growth inhibition (TGI) relative to the control [1]: 38%
tumor growth inhibition (TGI) relative to the control [2]: 12.6%
tumor growth inhibition (TGI) relative to the control [3]: 53.1%
